The values below come from patent US11452730B2, “Applications of desogestrel in the preparation of breast cancer ER-negative Ah receptor-positive products” (SHANGHAI JIAO TONG UNIVERSITY, priority 2015, dated 2022).

Like-named read-outs stand apart in the source and are kept apart here.

What all share (format): cell-based
Test [1] has as its system ER-negative Ah receptor-positive MDA-MB-468 breast cancer cells. Description: CellTiter-Glo luminescent cell viability assay, MDA-MB-468 96-well drug screening plate. Particulars: Homo sapiens, 72 hours. The method, then:
RKO cells, LoVo cells, and MDA-MB-468 ductal breast cancer cells were handled as described above, and RKO 96-well cell culture plates, 96-well LoVo cell culture plates, and 96-well MDA-MB-468 cell culture plates were obtained, respectively. The complete medium for ER-negative Ah receptor-positive MDA-MB-468 breast cancer cells was Leibovitz's L-15 (a live product), Cat #11415064, with a cells/well density of 12000. a) DMSO was used to dilute the analyte desogestrel to 20 mM for use. b) 79 μL of the 20 mM analyte prepared in step a) was added to the first well in the first row of the dilution plate, and then 54 μL of DMSO solution was added to the second through ninth wells of the first row. 25 μL of solution was aspirated from the first to the second well, and after mixing well 25 μL of solution was aspirated from the second to the third well, and this was repeated until the 9th well in order to ensure that 3.16 dilution of the medication would be carried out one-by-one. b) 95 μl of cell-specific complete medium was added to the working plate, each medication to 9 wells. […] The final concentrations (μM) of the analyte drug in wells 2-10 in FIG. 1 are, in order: 100, 31.64557, 10.01442, 3.16912, 1.002886, 0.317369, 0.100433, 0.031783, 0.010058; c) 100 μl of CellTiter-Glo reagent (prepared as described in 1 above) was added to all drug screening plates and mixed evenly. d) It was thoroughly oscillated in a 96-well microplate oscillator for 2 minutes to allow the cells to undergo full lysis. e) It was stored away from light at room temperature for 15 minutes before carrying out luminescent signal detection to ensure signal stability. f) An EnSpire multi-function plate reader was used at 570 nm to read the luminescent signals.

The subject of a further test is RKO colon cancer cells. Nature of the test: CellTiter-Glo luminescent cell viability assay, RKO 96-well drug screening plate. The settings on record: 72 hours. The method, then: (§1) In example 1, CELLTITER-GLO was used to test desogestrel for colon cancer RKO cells, LoVo cells, and MDA-MB-468 ductal breast cancer cells were handled as described above, and RKO 96-well cell culture plates, 96-well LoVo cell culture plates, and 96-well MDA-MB-468 cell culture plates were obtained, respectively. The complete medium for RKO cells was DMEM (a live product), Cat #11995081, with a cells/well density of 12000. a) DMSO was used to dilute the analyte desogestrel to 20 mM for use. b) 79 μL of the 20 mM analyte prepared in step a) was added to the first well in the first row of the dilution plate, and then 54 μL of DMSO solution was added to the second through ninth wells of the first row. 25 μL of solution was aspirated from the first to the second well, and after mixing well 25 μL of solution was aspirated from the second to the third well, and this was repeated until the 9th well in order to ensure that 3.16 dilution of the medication would be carried out one-by-one. b) 95 μl of cell-specific complete medium was added to the working plate, each medication to 9 wells. […] The final concentrations (μM) of the analyte drug in wells 2-10 in FIG. 1 are, in order: 100, 31.64557, 10.01442, 3.16912, 1.002886, 0.317369, 0.100433, 0.031783, 0.010058; a) Before testing, the RKO 96-well drug screening plate and the LoVo 96-well drug screen plate described in 3 above were stabilized to room temperature for 20-30 minutes. c) 100 μl of CellTiter-Glo reagent (prepared as described in 1 above) was added to all drug screening plates and mixed evenly. d) It was thoroughly oscillated in a 96-well microplate oscillator for 2 minutes to allow the cells to undergo full lysis. e) It was stored away from light at room temperature for 15 minutes before carrying out luminescent signal detection to ensure signal stability. f) An EnSpire multi-function plate reader was used at 570 nm to read the luminescent signals.

In another test the test system is LoVo colon cancer cells. Description: CellTiter-Glo luminescent cell viability assay, LoVo 96-well drug screening plate. Particulars: Homo sapiens, 72 hours. On the procedure: as §1, with “for LoVo” for “for RKO”, “was MEM” for “was DMEM”, “Cat #10370021,” for “Cat #11995081,”, “of 8000.” for “of 12000.”
In test [2] the test system is BT-474 ductal breast cancer cells. Description: CellTiter-Glo luminescent cell viability assay, BT-474 cells (same method). Particulars: Homo sapiens, Table 1. The text has this: Ductal breast cancer cells BT-474, complete medium basis of RPMI-1640 (a live product), Cat #A1049101, with a cells/well density of 4,000. The same method was used to test desogestrel's action on the IC50 value of BT-474 ductal breast cancer cells; results are shown in Table 1.

With `C#C[C@]1(O)CC[C@H]2[C@@H]3CCC4=CCCC[C@@H]4[C@H]3C(=C)C[C@@]21CC` [desogestrel], the EC50 came to 11.3 µM in test [1] (FIG. 4, ER-negative Ah receptor-positive breast cancer, MDA-MB-468 plate); 136 µM in the test with RKO colon cancer cells (FIG. 2, colon cancer, RKO 96-well drug screening plate); 26.3 µM in the test on LoVo colon cancer cells (FIG. 3, colon cancer, LoVo 96-well drug screening plate). For the same compound, the IC50 amounted to 12.5 µM in test [1] (FIG. 4, ER-negative Ah receptor-positive breast cancer, MDA-MB-468 plate, read-out: IC50); 12.5 µM in test [1] (MDA-MB-468 cells, Table 1, read-out: IC50 value); 32.1 µM in the test on RKO colon cancer cells (FIG. 2, colon cancer, RKO 96-well drug screening plate, read-out: IC50); 26.2 µM in the test on RKO colon cancer cells (Homo sapiens, RKO cells, Table 1, read-out: IC50 value); 26.2 µM in the test with LoVo colon cancer cells (FIG. 3, colon cancer, LoVo 96-well drug screening plate, read-out: IC50); 32.1 µM in the test with LoVo colon cancer cells (LoVo cells, Table 1, read-out: IC50 value). Moreover, in test [2], the IC50 is no less than 100 µM.
